Columns and labels:
NZB/W F1 female mice [1] = test: Murine SLE model: BUN and anti-dsDNA antibody levels; assay type: in vivo, mouse
Procedure: Survival had been monitored until 42 weeks of age.
Blood samples had been collected from mice under isoflurane anesthesia every 4 weeks (at 24, 28, 32, 36, 40 weeks of age and autopsy), and the obtained serum samples had been kept at −70 °C until the analysis.

NZB/W F1 female mice [2] = test: Murine SLE model: serum chemistry and necropsy; settings: for ALP / ALT / AST / Albumin / CPK / Ca / Total bilirubin / Total protein: serum at autopsy, mean ± SD
Procedure: Control mice received 150 μL of vehicle (Ethanol: Kolliphor® EL: saline = 1:1:8) and were subjected to the same schedule. Survival rate and incidence of severe proteinuria (percent individual mice with urine protein ≥300 mg/dL) were calculated. Survival had been monitored until 42 weeks of age.

CKD-506
Levels of BUN vs vehicle (NZB/W F1 female mice [1]; group CKD30, 40 weeks of age): significantly lower | Levels of BUN vs vehicle (NZB/W F1 female mice [1]; group CKD30, at autopsy): significantly lower | Levels of BUN vs vehicle (NZB/W F1 female mice [1]; group CKD50, 36 weeks of age): significantly lower | Levels of BUN vs vehicle (NZB/W F1 female mice [1]; group CKD50, 40 weeks of age): significantly lower | Levels of BUN vs vehicle (NZB/W F1 female mice [1]; group CKD50, at autopsy): significantly lower | appearance of the spleen, kidneys, liver, lungs, or heart (gross or microscopic examination at necropsy) (NZB/W F1 female mice [2]; end of experiment): did not result in significant changes | serum ALT relative to reference range (NZB/W F1 female mice [2]; group CKD50, significantly higher than the other groups): within the reference range | ALP (NZB/W F1 female mice [2]; group D: CKD-506 10 mg/kg/day): 187.44 ± 62.24 U/l | ALT (NZB/W F1 female mice [2]; group D: CKD-506 10 mg/kg/day): 18.10 ± 5.43 U/l | AST (NZB/W F1 female mice [2]; group D: CKD-506 10 mg/kg/day): 44.20 ± 10.09 U/l | Albumin (NZB/W F1 female mice [2]; group D: CKD-506 10 mg/kg/day): 1.91 ± 0.43 g/dL | CPK (NZB/W F1 female mice [2]; group D: CKD-506 10 mg/kg/day): 86.70 ± 56.89 U/l | Ca (NZB/W F1 female mice [2]; group D: CKD-506 10 mg/kg/day): 10.08 ± 1.26 mg/dL | Total bilirubin (NZB/W F1 female mice [2]; group D: CKD-506 10 mg/kg/day): 0.22 ± 0.09 mg/dL | Total protein (NZB/W F1 female mice [2]; group D: CKD-506 10 mg/kg/day): 4.74 ± 0.63 g/dL | ALP (NZB/W F1 female mice [2]; group E: CKD-506 30 mg/kg/day): 155.92 ± 19.94 U/l | ALT (NZB/W F1 female mice [2]; group E: CKD-506 30 mg/kg/day): 20.79 ± 2.91 U/l | AST (NZB/W F1 female mice [2]; group E: CKD-506 30 mg/kg/day): 55.21 ± 19.34 U/l | Albumin (NZB/W F1 female mice [2]; group E: CKD-506 30 mg/kg/day): 2.19 ± 0.43 g/dL | CPK (NZB/W F1 female mice [2]; group E: CKD-506 30 mg/kg/day): 84.71 ± 31.40 U/l | Ca (NZB/W F1 female mice [2]; group E: CKD-506 30 mg/kg/day): 9.65 ± 0.69 mg/dL | Total bilirubin (NZB/W F1 female mice [2]; group E: CKD-506 30 mg/kg/day): 0.26 ± 0.12 mg/dL | Total protein (NZB/W F1 female mice [2]; group E: CKD-506 30 mg/kg/day): 5.21 ± 0.71 g/dL | ALP (NZB/W F1 female mice [2]; group F: 50 mg/kg/day): 153.08 ± 17.25 U/l | ALT (NZB/W F1 female mice [2]; group F: 50 mg/kg/day): 29.07 ± 12.21 U/l | AST (NZB/W F1 female mice [2]; group F: 50 mg/kg/day): 59.00 ± 56.14 U/l | Albumin (NZB/W F1 female mice [2]; group F: 50 mg/kg/day): 2.26 ± 0.35 g/dL | CPK (NZB/W F1 female mice [2]; group F: 50 mg/kg/day): 125.86 ± 177.18 U/l | Ca (NZB/W F1 female mice [2]; group F: 50 mg/kg/day): 9.43 ± 0.59 mg/dL | Total bilirubin (NZB/W F1 female mice [2]; group F: 50 mg/kg/day): 0.28 ± 0.14 mg/dL | Total protein (NZB/W F1 female mice [2]; group F: 50 mg/kg/day): 5.35 ± 0.60 g/dL

From article PMC6251916, “CKD-506, a novel HDAC6-selective inhibitor, improves renal outcomes and survival in a mouse model of systemic lupus erythematosus” (Scientific Reports, 2018)
